Assay results from PubChem BioAssay AID1918932 (Molecular Pharmacology Branch, DTP, NCI, 2023).

System: 171881-019-R-J1-PDC complex spheroid viability
Assay: Anticancer human tumor 171881-019-R-J1-PDC patient-derived invasive breast carcinoma cell line growth inhibition
Conditions: for IC50: curve of first compound; for viability, T/C: stronger effect = lower value
Excerpt: Multicellular complex tumor spheroid response to LSD1 Inhibitor Iadademstat in combination with a variety of drugs and investigational agents in selected tumor cell lines
The current study was undertaken to assess response to LSD1 inhibitors in combination with standard-of-care drugs and investigational agents in solid tumor complex spheroid models as well as in the K-562 leukemia. Complex spheroids include a stromal component modeled by human endothelial cells (HUVEC) and fibroblasts modeled by human mesenchymal stem cells (MSCs). The concentration ranges selected for each drug and investigational agent were based upon clinically achievable concentrations if the clinical Cmax of the agent was known.
Compounds. The drugs and investigational agents used in this study are listed on Table 1. All of the agents used, including staurosporine (NSC755774) and gemcitabine (NSC613327), were obtained from the Developmental Therapeutics Program, NCI. FDA-approved anticancer drugs are available from the NCI at http://dtp.nci.nih.gov/branches/dscb/oncology_drugset_explanation.html. Drugs and investigational agents were >95% pure by proton nuclear magnetic resonance (NMR) and liquid chromatography/mass spectrometry (LC/MS). Stock solutions were prepared at 400x in DMSO, stored at -70 degrees C, and diluted in fresh medium prior to their use. The final concentration of DMSO in cell culture wells never exceeded 0.25% (v/v). The FDA-approved anticancer drug set is available from the Developmental Therapeutics Program at https://dtp.cancer.gov/organization/dscb/obtaining/available_plates.htm. All drugs and investigational agents were tested over a range starting from a high concentration at or near the clinical Cmax and decreasing in half-log increments. If the clinical Cmax for an agent had not been determined, the highest concentration tested was 10 microM.
Cell Lines. The patient-derived cancer cell (PDC) lines: 292921-168-R-J2-PDC, K24384-001-R-PDC, and 521955-158-R2-J5-PDC pancreatic carcinomas, 556581-035-R-J1 ovarian carcinoma, 324938-238-R-J1-PDC, 855422-203-R-J1-PDC and 883617-216-R-J1-PDC urothelial bladder carcinomas, 743489-274-T-PDC renal cell carcinoma, 138582-R-J1 Merkel cell tumor, K60290-347-R-J1 and K57222-313-R-J1-PDC glioblastomas, 653999-131-R-J2-PDC, LG0703-F948-PDC, and 349418-098-R-PDC non-small cell lung carcinomas, 885512-296-R-J2-PDC, 171881-019-R-J1-PDC breast carcinomas and 186277-243-T-J2-PDC and 233499-124-R-J2-PDC colon carcinomas were obtained from the NCI Patient-Derived Models Repository (PDMR, https://pdmr.cancer.gov). The established cell lines NCI/ADR-RES (RRID:CVCL_14520 and OVCAR-5 (RRID:CVCL_1628) ovarian carcinomas, 786-O (RRID:CVCL_1051) and A498 (RRID:CVCL_A498) renal cell carcinoma, NCI-H211 (ATCC, cat. CRL-5824; RRID:CVCL_1529), NCI-H196 (ATCC, cat. CRL-5823, RRID:CVCL_1509), SW 1271 (ATCC, cat. CRL-2177, RRID:CVCL_1716) and NCI-H1876 (ATCC, cat. CRL-5902, RRID:CVCL_1503) small cell lung carcinomas, MDA-MB-231 (RRID:CVCL_0062) and MDA-MB-468 (RRID:CVCL_0419)breast carcinomas (10-12). Pooled donor human umbilical vein endothelial cells (HUVEC, Lonza, cat. CC-2519) and human mesenchymal stem cells (hMSC, Lonza, cat. PT-2501) were purchased from Lonza (Walkersville, MD).
Cell Culture. All cells were maintained in an incubator at 37 degrees C and 5% CO2 with 95% humidity. The PDC lines were cultured according to standard operating procedures established by the NCI PDMR (https://pdmr.cancer.gov). Briefly all PDCs were thawed and cultured in Matrigel-coated flasks prepared with a working solution of 1X Ham's F-12 nutrient mix, without supplementation (Invitrogen, Waltham, MA, cat. 11765054), 100 U/mL penicillin-streptomycin (Invitrogen, cat. 15140122), and 2.5% Matrigel (Corning Inc., Corning, NY, cat. 354248) for the first three passages. […]

[1] = second compound 0.1 µM, first compound 0.000949 µM
[2] = second compound 0.1 µM, first compound 0.003 µM
[3] = second compound 0.1 µM, first compound 0.00949 µM
[4] = second compound 0.1 µM, first compound 0.03 µM
[5] = second compound 0.1 µM, first compound 0.0949 µM
[6] = second compound 0.1 µM, first compound 0.3 µM
[7] = second compound 0.316 µM, first compound 0.000949 µM
[8] = second compound 0.316 µM, first compound 0.003 µM
[9] = second compound 0.316 µM, first compound 0.00949 µM
[10] = second compound 0.316 µM, first compound 0.03 µM
[11] = second compound 0.316 µM, first compound 0.0949 µM
[12] = second compound 0.316 µM, first compound 0.3 µM
[13] = second compound 1 µM, first compound 0.000949 µM
[14] = second compound 1 µM, first compound 0.003 µM
[15] = second compound 1 µM, first compound 0.00949 µM
[16] = second compound 1 µM, first compound 0.03 µM
[17] = second compound 1 µM, first compound 0.0949 µM
[18] = second compound 1 µM, first compound 0.3 µM
[19] = second compound 3.16 µM, first compound 0.000949 µM
[20] = second compound 3.16 µM, first compound 0.003 µM
[21] = second compound 3.16 µM, first compound 0.00949 µM
[22] = second compound 3.16 µM, first compound 0.03 µM
[23] = second compound 3.16 µM, first compound 0.0949 µM
[24] = second compound 3.16 µM, first compound 0.3 µM
[25] = second compound 10 µM, first compound 0.000949 µM
[26] = second compound 10 µM, first compound 0.003 µM
[27] = second compound 10 µM, first compound 0.00949 µM
[28] = second compound 10 µM, first compound 0.03 µM
[29] = second compound 10 µM, first compound 0.0949 µM
[30] = second compound 10 µM, first compound 0.3 µM
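Note: spheroids exposed to agents for 7 days after 3 days growth.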

SMILES: CCc1c2c(nc3ccc(O)cc13)-c1cc3c(c(=O)n1C2)COC(=O)[C@]3(O)CC + NC1CC1c1ccc(-c2cccc(O)c2)cc1
- IC50 (second compound 0.1 µM): < 0.949 nM
- IC50 (second compound 0.316 µM): < 0.949 nM
- IC50 (second compound 1 µM): < 0.949 nM
- IC50 (second compound 3.16 µM): < 0.949 nM
- IC50 (second compound 10 µM): < 0.949 nM
- viability, T/C [1]: 44.7%
- viability, T/C [2]: 30.8%
- viability, T/C [3]: 25.1%
- viability, T/C [4]: 15.4%
- viability, T/C [5]: 21.5%
- viability, T/C [6]: 19.3%
- viability, T/C [7]: 49%
- viability, T/C [8]: 37.4%
- viability, T/C [9]: 17.8%
- viability, T/C [10]: 20%
- viability, T/C [11]: 16.7%
- viability, T/C [12]: 22.7%
- viability, T/C [13]: 36.3%
- viability, T/C [14]: 22.2%
- viability, T/C [15]: 8.77%
- viability, T/C [16]: 16.8%
- viability, T/C [17]: 13.8%
- viability, T/C [18]: 18.6%
- viability, T/C [19]: 22.5%
- viability, T/C [20]: 22.6%
- viability, T/C [21]: 5.26%
- viability, T/C [22]: 13.8%
- viability, T/C [23]: 14.6%
- viability, T/C [24]: 5.74%
- viability, T/C [25]: 26.9%
- viability, T/C [26]: 14.8%
- viability, T/C [27]: 2.56%
- viability, T/C [28]: 8.5%
- viability, T/C [29]: 7.12%
- viability, T/C [30]: 4.11%

SMILES: Nc1ccn(C2OC(CO)C(O)C2(F)F)c(=O)n1 (stereo not given) + NC1CC1c1ccc(-c2cccc(O)c2)cc1
- IC50 (second compound 0.1 µM): > 300 nM
- IC50 (second compound 0.316 µM): > 300 nM
- IC50 (second compound 1 µM): > 300 nM
- IC50 (second compound 3.16 µM): > 300 nM
- IC50 (second compound 10 µM): > 300 nM
- viability, T/C [1]: 65.1%
- viability, T/C [2]: 61.8%
- viability, T/C [3]: 57.8%
- viability, T/C [4]: 61.2%
- viability, T/C [5]: 65%
- viability, T/C [6]: 64.1%
- viability, T/C [7]: 70.9%
- viability, T/C [8]: 63.8%
- viability, T/C [9]: 59.7%
- viability, T/C [10]: 60.9%
- viability, T/C [11]: 66.6%
- viability, T/C [12]: 64.1%
- viability, T/C [13]: 76.6%
- viability, T/C [14]: 62.6%
- viability, T/C [15]: 59.5%
- viability, T/C [16]: 62.2%
- viability, T/C [17]: 62%
- viability, T/C [18]: 63.8%
- viability, T/C [19]: 74.8%
- viability, T/C [20]: 58.3%
- viability, T/C [21]: 57.8%
- viability, T/C [22]: 56.6%
- viability, T/C [23]: 60.2%
- viability, T/C [24]: 63.2%
- viability, T/C [25]: 65.7%
- viability, T/C [26]: 61.2%
- viability, T/C [27]: 52.4%
- viability, T/C [28]: 55.6%
- viability, T/C [29]: 59.1%
- viability, T/C [30]: 56%

SMILES: O=C(c1cc(Cc2n[nH]c(=O)c3ccccc23)ccc1F)N1CCN(C(=O)C2CC2)CC1 + NC1CC1c1ccc(-c2cccc(O)c2)cc1
- IC50 (second compound 0.1 µM): 3700 nM
- IC50 (second compound 0.316 µM): 4090 nM
- IC50 (second compound 1 µM): 4230 nM
- IC50 (second compound 3.16 µM): 4400 nM
- IC50 (second compound 10 µM): 3090 nM
- viability, T/C (second compound 0.1 µM, first compound 0.0316 µM): 90.8%
- viability, T/C (second compound 0.1 µM, first compound 0.1 µM): 106%
- viability, T/C (second compound 0.1 µM, first compound 0.316 µM): 98.7%
- viability, T/C (second compound 0.1 µM, first compound 1 µM): 88.5%
- viability, T/C (second compound 0.1 µM, first compound 3.16 µM): 54.5%
- viability, T/C (second compound 0.1 µM, first compound 10 µM): 22.7%
- viability, T/C (second compound 0.316 µM, first compound 0.0316 µM): 101%
- viability, T/C (second compound 0.316 µM, first compound 0.1 µM): 104%
- viability, T/C (second compound 0.316 µM, first compound 0.316 µM): 101%
- viability, T/C (second compound 0.316 µM, first compound 1 µM): 88%
- viability, T/C (second compound 0.316 µM, first compound 3.16 µM): 57.8%
- viability, T/C (second compound 0.316 µM, first compound 10 µM): 23.7%
- viability, T/C (second compound 1 µM, first compound 0.0316 µM): 106%
- viability, T/C (second compound 1 µM, first compound 0.1 µM): 105%
- viability, T/C (second compound 1 µM, first compound 0.316 µM): 102%
- viability, T/C (second compound 1 µM, first compound 1 µM): 89.5%
- viability, T/C (second compound 1 µM, first compound 3.16 µM): 58.9%
- viability, T/C (second compound 1 µM, first compound 10 µM): 24%
- viability, T/C (second compound 3.16 µM, first compound 0.0316 µM): 102%
- viability, T/C (second compound 3.16 µM, first compound 0.1 µM): 105%
- viability, T/C (second compound 3.16 µM, first compound 0.316 µM): 101%
- viability, T/C (second compound 3.16 µM, first compound 1 µM): 87%
- viability, T/C (second compound 3.16 µM, first compound 3.16 µM): 61%
- viability, T/C (second compound 3.16 µM, first compound 10 µM): 23.7%
- viability, T/C (second compound 10 µM, first compound 0.0316 µM): 85.7%
- viability, T/C (second compound 10 µM, first compound 0.1 µM): 84.2%
- viability, T/C (second compound 10 µM, first compound 0.316 µM): 83.4%
- viability, T/C (second compound 10 µM, first compound 1 µM): 74%
- viability, T/C (second compound 10 µM, first compound 3.16 µM): 49.6%
- viability, T/C (second compound 10 µM, first compound 10 µM): 18.9%
